Test results as given in patent US20180177749A1, “USE OF CYP EXPRESSION TO DIRECT THERAPEUTIC INTERVENTION IN CANCER” (REGENTS OF THE UNIVERSITY OF MINNESOTA, priority 2016, published 2018).
Like-named read-outs stand apart in the source and are kept apart here.

Tests used:
[1] = test system: MCF-7 xenograft
Protocol: 17-β-estradiol (E2) was given in drinking water at 1 μM beginning the day of tumor implantation. […] Tumors were collected from each mouse after sacrifice and endpoint tumor weights were measured.
N=20 mice per arm for each study; error bars represent SEM.
In the HBB dose optimization model, mammary fat pad injection was performed with the MCF-7 cell line as described above, and tumors were allowed to grow until an average tumor volume of 50 mm^3. Mice were randomized, and tumor growth was monitored. Estradiol (1 μM) was present in the drinking water as above. Cremophor was administered weekly in the vehicle and HBB groups so that paclitaxel could be used in subsequent chemotherapy synergy studies (unpublished data). Mice were dosed at 6 mg/kg/day ip 4 days of 7 with no more than 2 consecutive days dosing and weighed daily. […] Tumors were harvested at the endpoint of the study following sacrifice by isoflurane anesthesia followed by cervical dislocation. Organs were harvested for histopathological assay of end organ toxicity.

[2] = molecular target: CYP3A4 (Δ3-22) (Homo sapiens, UniProt P08684); assay: Spectral binding to soluble truncated CYP3A4; details: soluble truncated CYP3A4Δ3-22; read-out: spectral dissociation constant (Ks)
[3] = test system: MCF-7 cells; assay: Cellular ATP by luminescent assay; type: cell-based, human
Protocol: Cells were seeded in 96-well tissue culture plate in 100 μL medium per well. After treatment with either vehicle or testing compound for an appropriate length of time, 50 μL mammalian cell lysis solution was added to each well and the plate was shaken for 5 minutes on an orbital shaker. To each well, 50 μL luminescent substrate and luciferase solution were then added. After incubation in the dark for 10 minutes, the luminescence measured. Cellular ATP levels were then calculated against a standard curve generated with ATP standards of known concentration.

[4] = test system: MDA-MB-231 cells; assay: JC-1 mitochondrial membrane potential staining, MDA-MB-231; type: cell-based, human; details: HBB 20 μM 4 hours, (±)-14,15-EET 1 μM
Protocol: Cells were grown in chamber slides at 37° C. with 5% CO2 and treated with DMSO or HBB for 4 hours before JC-1 dye was added for the MCF-7 or MDA-MB-231 cell line. […] Images of red fluorescence (590 nm) and green fluorescence (530 nm) were acquired using an Olympus 1X70 microscope fitted with an Olympus DP70 digital camera (Olympus, Tokyo, Japan).

[5] = test system: MCF-7 cells; assay: Western blot of signaling proteins, MCF-7; type: cell-based, human
Protocol: RIPA extracts of cells were prepared as described previously, in the presence of protease inhibitors and phosphatase inhibitors. Protein concentrations were determined by the micro-bicinchoninic acid (BCA) method, and 30 μg of protein was used for each lane of the SDS-polyacrylamide gel Western blot. Relative protein expression was estimated using GAPDH or β-actin as an internal standard.

Chain of CYP3A4 (Δ3-22) (P08684 with tags, fused parts or gaps): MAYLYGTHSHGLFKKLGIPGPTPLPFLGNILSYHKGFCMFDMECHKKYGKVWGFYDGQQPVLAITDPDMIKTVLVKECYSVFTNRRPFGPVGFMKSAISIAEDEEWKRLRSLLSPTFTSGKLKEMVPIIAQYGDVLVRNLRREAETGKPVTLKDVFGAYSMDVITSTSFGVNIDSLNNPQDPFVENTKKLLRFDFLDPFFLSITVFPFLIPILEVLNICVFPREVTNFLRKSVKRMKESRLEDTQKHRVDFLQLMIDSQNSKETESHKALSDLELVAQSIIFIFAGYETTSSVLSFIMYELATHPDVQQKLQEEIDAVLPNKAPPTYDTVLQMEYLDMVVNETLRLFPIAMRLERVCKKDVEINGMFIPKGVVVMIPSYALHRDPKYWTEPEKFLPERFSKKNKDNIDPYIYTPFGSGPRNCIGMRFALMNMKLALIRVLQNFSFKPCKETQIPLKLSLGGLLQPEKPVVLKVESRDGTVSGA

Structure (SMILES): CCCCCCNC(=N)NC(=N)NCc1ccccc1 [HBB, N1-hexyl-N5-benzyl-biguanide]
- end point tumor weights lower than control ([1]; 4 mg/kg/day ip): 34%
- tumor growth ([1]; 4 mg/kg/day ip): slower growth
- end point tumor weight (mean±SEM) ([1]; 4 mg/kg/day ip, n=19): 220 ± 35 mg
- tumor growth ([1]; 6 mg/kg ip 4 of 7 days (24 mg/kg/week), from 50 mm^3): significant reduction of tumor growth
- end point tumor weights lower than PBS group ([1]; 24 mg/kg/week ip): 48%
- end point tumor weight (mean±SEM) ([1]; 24 mg/kg/week ip, n=13): 127 ± 16 mg
- weight decline vs. control ([1]; mouse, in vivo, ip, 6 mg/kg/day): > 5%
- Kd [2]: 164 µM
- ATP depletion ([3]; 6 hours): 30%
- total cellular ATP levels ([3]; 6 hours of treatment, metformin 5 mM): reduced
- mitochondrial membrane potential (ΔΨm), JC-1 [4]: caused mitochondrial depolarization
- dosing for signaling effects relative to metformin (lower) [5]: 250 fold
- mTOR, S6 kinase and ERK ([5]; 20 μM, by 24 hours, presence or absence of serum): Significant inhibition
- onset of AMPK activation (phosphorylation) ([5]; HBB 20 μM, metformin 5 mM): within 30 minutes to 1 hour
